Consider one compound from paper PMC8591201, “Anti-Tumor Activity of AZD4547 Against NTRK1 Fusion Positive Cancer Cells Through Inhibition of NTRKs” (Frontiers in Oncology, 2021).

The target of one assay is T1, TRKA (Homo sapiens, UniProt P04629).
T1 construct: gene NTRK1
The assay is described as follows: radiometric biochemical kinase assay.

Another assay has as its system MKN45. Nature of the assay: cells. Set-up: Anti-proliferation, 10-point dose response, CellTiter-Glo luminescence (MTT stated for KM12(Luc)), GI50 fitted in Prism. The conditions noted are these: Homo sapiens, MKN-45, 72 h, read-out: GI50 (µM) a. As to the method:
(§1) To obtain the GI50 value of a substance, cell viability was measured using MTT (G4000, Promega, USA) for KM12(Luc) cell and Cell titer glo (G7572, Promega, USA) for other cell lines. For adherent cells, cells were seeded at 5,000 cells/well in a 96-well plate and treated with a substance one day after cell seeding. For suspension cells, 10,000 cells/well were seeded and the substance was treated after 4 h stabilization of cells. The substance was treated at 10 points of 1:3 serial dilution (0–100 µmol/L) for 72 h. For MTT assay, 15 µL dye solution was added to each well and incubated 4 h at 37°C. 100 µL of solubilization solution was added and followed 1 hr incubation. Absorbance at 570 nm of each well was recorded using EnVision microplate reader (Perkin Elmer). For Cell titer glo assay, Cell titer glo reagent was treated in each well and measured the luminescence by EnVision microplate reader (Perkin Elmer). Viable cells in each well were normalized by using 0.5% DMSO-treated wells (100%). The inhibitor dose−response curve was fitted and GI50 values were calculated using Prism 7.0 software (GraphPad). All assays were performed in duplicate and the standard deviation (SD) was determined from two independent experiments. KM12(Luc) was purchased from the JCRB cell bank. KM12 (Luc) was used within 6 months after purchase and the DNA profiles were confirmed using a short tandem repeat (STR) analysis by the Korean Cell Line Bank. KM12(Luc) cells were maintained in DMEM supplemented with 10% FBS and antibiotics. Parental Ba/F3 cells were purchased from DSMZ and were grown in RPMI1640 supplemented with 10% FBS and antibiotics in the presence of IL3, Transformed Ba/F3 cell lines were grown in the same media without IL3. Cells used in this study were negative for mycoplasma contamination. AN3-CA, HEC1A, U138, 8505C, MKN28, MKN45, A172, A375, Capan-1 HeLa, HEP3B, MCF-7 and MIA-paca-2 cells were maintained in DMEM (Welgene, Korea) supplemented with 10% FBS and antibiotics (Welgene, Korea). Otherwise, all cells were maintained in RPMI (Welgene, Korea) supplemented with 10% FBS and antibiotics (Welgene, Korea). To identify AZD4547 sensitive cell lines other than FGFR-mutant driven cancer cells, GI50 values were determined for AZD4547 against 64 different cancer cell lines, including AN3-CA used as a positive control ( Figure 1A and Table S1 ). […] Also, inhibitory activity of AZD4547 against DDR1 or FLT3 allows suppression of proliferation of U-2-OS and MV4-11 ([43]). Therefore, our attention focused on the inhibitory activity of AZD4547 against KM12(Luc) cell lines which have the TPM3-NTRK1 fusion gene. To exclude the possibility that the anti-proliferation activity of AZD4547 against KM12(Luc) is a common characteristic of FGFR inhibitors, we determined if BGJ398, a representative FGFR inhibitor, is also capable of suppressing proliferation of KM12(Luc) cells ( Figure 1B ).

The test system of a further assay is NCI-H1975. Nature of the assay: cells. The conditions noted are these: Homo sapiens, NCI-H1975, 72 h, read-out: GI50 (µM) a. Details: Anti-proliferation, 10-point dose response, CellTiter-Glo luminescence (MTT stated for KM12(Luc)), GI50 fitted in Prism. As to the method: as §1
Another assay deals with MDA-MB-468. The assay is described as follows: cells. Set-up: Anti-proliferation, 10-point dose response, CellTiter-Glo luminescence (MTT stated for KM12(Luc)), GI50 fitted in Prism. Particulars: Homo sapiens, MDA-MB-468, 72 h, read-out: GI50 (µM) a. As to the method:
as §1

Another assay concerns MIA-PaCa-2. Nature of the assay: cells. Details: Anti-proliferation, 10-point dose response, CellTiter-Glo luminescence (MTT stated for KM12(Luc)), GI50 fitted in Prism. The conditions noted are these: Homo sapiens, MIA PaCa-2, 72 h, read-out: GI50 (µM) a. The procedure:
as §1

The subject of a further assay is NCI-H1437. Nature of the assay: cells. Details: Anti-proliferation, 10-point dose response, CellTiter-Glo luminescence (MTT stated for KM12(Luc)), GI50 fitted in Prism. Particulars: Homo sapiens, NCI-H1437, 72 h, read-out: GI50 (µM) a. The procedure: as §1
Another assay relates to C8161. The assay is described as follows: cells. Set-up: Anti-proliferation, 10-point dose response, CellTiter-Glo luminescence (MTT stated for KM12(Luc)), GI50 fitted in Prism. The conditions noted are these: Homo sapiens, C8161, 72 h, read-out: GI50 (µM) a. As to the method: as §1
The test system of another assay is J82. The assay is described as follows: cells. Set-up: Anti-proliferation, 10-point dose response, CellTiter-Glo luminescence (MTT stated for KM12(Luc)), GI50 fitted in Prism. Particulars: Homo sapiens, J82, 72 h, read-out: GI50 (µM) a. As to the method:
as §1

Another assay has as its system NCI-H2228. Nature of the assay: cells. Particulars: Homo sapiens, NCI-H2228, 72 h, read-out: GI50 (µM) a. Details: Anti-proliferation, 10-point dose response, CellTiter-Glo luminescence (MTT stated for KM12(Luc)), GI50 fitted in Prism. The procedure: as §1
In the next assay the test system is KM12-Luc. The assay is described as follows: cells. Set-up: Anti-proliferation, 10-point dose response, CellTiter-Glo luminescence (MTT stated for KM12(Luc)), GI50 fitted in Prism. Particulars: KM12-Luc, 72 h, read-out: GI50 (µM) a. As to the method:
as §1

The subject of another assay is KG-1. Nature of the assay: cells. Set-up: Anti-proliferation, 10-point dose response, CellTiter-Glo luminescence (MTT stated for KM12(Luc)), GI50 fitted in Prism. Particulars: Homo sapiens, KG-1, 72 h, read-out: GI50 (µM) a. As to the method:
as §1

The next assay deals with HTH-7. Nature of the assay: cells. Set-up: Anti-proliferation, 10-point dose response, CellTiter-Glo luminescence (MTT stated for KM12(Luc)), GI50 fitted in Prism. Particulars: KM12-Luc, 72 h, read-out: GI50 (µM) a. The procedure: as §1
Another assay concerns SK-HEP-1. The assay is described as follows: cells. Set-up: Anti-proliferation, 10-point dose response, CellTiter-Glo luminescence (MTT stated for KM12(Luc)), GI50 fitted in Prism. Particulars: Homo sapiens, SK-HEP1, 72 h, read-out: GI50 (µM) a. The procedure: as §1

The IC50 is the concentration at which inhibition is half-maximal. One may read the GI50 as the concentration that inhibits growth by half.

T1 sequence (P04629 33-796): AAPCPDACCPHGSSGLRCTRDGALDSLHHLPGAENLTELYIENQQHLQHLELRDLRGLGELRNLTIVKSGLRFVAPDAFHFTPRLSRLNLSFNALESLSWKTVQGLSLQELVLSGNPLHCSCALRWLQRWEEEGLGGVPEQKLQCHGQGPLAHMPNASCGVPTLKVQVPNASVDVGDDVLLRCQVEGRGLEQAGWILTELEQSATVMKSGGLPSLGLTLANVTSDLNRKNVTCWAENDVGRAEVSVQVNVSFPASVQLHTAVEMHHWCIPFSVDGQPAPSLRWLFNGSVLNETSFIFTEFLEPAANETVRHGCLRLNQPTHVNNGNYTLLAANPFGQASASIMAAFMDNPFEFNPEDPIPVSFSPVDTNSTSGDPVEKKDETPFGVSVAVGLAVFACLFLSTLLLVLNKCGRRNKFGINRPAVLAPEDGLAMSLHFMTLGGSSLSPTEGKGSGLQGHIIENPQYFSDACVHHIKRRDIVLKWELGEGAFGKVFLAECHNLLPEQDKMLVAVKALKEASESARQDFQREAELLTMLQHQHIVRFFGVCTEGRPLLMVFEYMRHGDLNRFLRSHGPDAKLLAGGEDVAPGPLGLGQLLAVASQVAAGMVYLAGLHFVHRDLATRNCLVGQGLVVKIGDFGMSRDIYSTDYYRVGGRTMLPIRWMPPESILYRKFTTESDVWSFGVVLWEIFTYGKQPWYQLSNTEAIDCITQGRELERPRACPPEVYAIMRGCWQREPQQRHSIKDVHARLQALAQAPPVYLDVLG

Take `COc1cc(CCc2cc(NC(=O)c3ccc(N4C[C@@H](C)N[C@@H](C)C4)cc3)n[nH]2)cc(OC)c1` [AZD4547]: the IC50 at TRKA was 0.0088 µM. For the same compound, the GI50 was 12 µM in the assay with MKN45; 28.9 µM in the assay on NCI-H1975; 11.5 µM in the assay on MDA-MB-468; 12.2 µM in the assay on MIA-PaCa-2; 40.3 µM with NCI-H1437; 11.1 µM in the assay with C8161. For the same compound, the GI50 in the assay on J82 worked out at 9.54 µM; in the assay with NCI-H2228 it was 17.2 µM; with KM12-Luc, 0.11 µM; in the assay on KG-1 it was 6.27 µM; in the assay with HTH-7, 6.44 µM; in the assay with SK-HEP-1 it was 12.6 µM.
